Our source for the IC50 values is patent US9682995B2, “Amino-substituted isothiazoles” (BAYER PHARMA AKTIENGESELLSCHAFT, priority 2013, dated 2017).

In one experiment the target is human kinase Mps-1 (Homo sapiens (Human), UniProt P33981). Kind of experiment: Mps-1 kinase assay (TR-FRET). The note with it: 10 μM ATP; read-out: Mps1 avg (IC50 [mol/l]). The experiment is classed as biochemical. In a few lines: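 GST-tagged full-length human Mps-1 (~0.5 nM) preincubated 15 min with compound, then reacted 60 min at 22 °C with 10 μM ATP and 1 μM biotinylated peptide in Hepes pH 7.7 buffer. Phosphoproduct detected by TR-FRET (Eu anti-phospho-Ser/Thr, SA-XLent); 665/620 ratio normalised to no-inhibitor and no-enzyme controls.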
Chain of human kinase Mps-1 (P33981 whole entry): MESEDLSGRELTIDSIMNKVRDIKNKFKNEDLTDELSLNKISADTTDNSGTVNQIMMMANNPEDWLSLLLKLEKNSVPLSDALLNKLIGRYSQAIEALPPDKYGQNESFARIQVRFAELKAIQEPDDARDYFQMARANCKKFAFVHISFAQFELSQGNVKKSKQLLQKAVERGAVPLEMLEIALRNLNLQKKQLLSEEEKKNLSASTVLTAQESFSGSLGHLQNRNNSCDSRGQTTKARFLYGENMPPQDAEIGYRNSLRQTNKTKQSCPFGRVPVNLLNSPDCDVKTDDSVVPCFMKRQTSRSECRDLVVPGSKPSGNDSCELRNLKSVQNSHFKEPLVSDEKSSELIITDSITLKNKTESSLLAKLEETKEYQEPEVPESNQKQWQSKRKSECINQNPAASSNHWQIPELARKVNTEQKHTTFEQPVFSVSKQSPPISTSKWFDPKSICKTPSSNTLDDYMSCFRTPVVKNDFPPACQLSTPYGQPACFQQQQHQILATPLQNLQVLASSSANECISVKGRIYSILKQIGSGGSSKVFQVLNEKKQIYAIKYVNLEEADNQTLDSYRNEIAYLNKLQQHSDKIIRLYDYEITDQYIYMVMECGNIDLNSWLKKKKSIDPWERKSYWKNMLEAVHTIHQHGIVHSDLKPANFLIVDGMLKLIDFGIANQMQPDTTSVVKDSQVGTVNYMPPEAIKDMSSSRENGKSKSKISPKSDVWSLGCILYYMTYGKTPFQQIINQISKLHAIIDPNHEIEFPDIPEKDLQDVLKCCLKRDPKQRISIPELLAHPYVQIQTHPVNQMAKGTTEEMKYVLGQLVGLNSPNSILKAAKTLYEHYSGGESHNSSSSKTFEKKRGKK
A general note: In TR-FRET formats the signal depends on donor and acceptor labels being close together.

For experiment [1], the system named is spindle assembly checkpoint. Briefly: SAC-Formation - Paclitaxel-Induced Assay. The experiment is classed as cell-based. The note with it: Homo sapiens; HeLa cells, paclitaxel 0.05 μM, 24 h, phosphorylated histone H3 on serine 10. In a few lines:
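HeLa cells were plated overnight, then given paclitaxel (0.05 μM final) plus compound (0.005-20 μM, 0.5% DMSO) for 24 h at 37° C. Fixed cells were stained for phospho-histone H3 Ser10 and with Hoechst, then imaged to give mitotic index. A fall in mitotic cells marks SAC breakthrough, and values were fit with a four-parameter Hill equation.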

For `CCc1ccccc1NC(=O)c1c(C)nsc1Nc1ccncn1` [Example 2, N-(2-Ethylphenyl)-3-methyl-5-(pyrimidin-4-ylamino)-1,2-thiazole-4-carboxamide], the IC50 at human kinase Mps-1 is more than 20000 nM; in experiment [1], 11000 nM.

Consider `CCc1ccccc1NC(=O)c1c(C)nsc1Nc1ncccc1C(F)(F)F` [Example 3, N-(2-Ethylphenyl)-3-methyl-5-{[3-(trifluoromethyl)pyridin-2-yl]amino}-1,2-thiazole-4-carboxamide], for which the IC50 at human kinase Mps-1 was more than 20000 nM; in experiment [1], 5100 nM.

`CCc1ccccc1NC(=O)c1c(C)nsc1Nc1cc(C#N)ccn1` [Example 4, 5-[(4-Cyanopyridin-2-yl)amino]-N-(2-ethylphenyl)-3-methyl-1,2-thiazole-4-carboxamide]: the figures for the IC50 (at human kinase Mps-1; in experiment [1]) were more than 20000 nM and 1700 nM, respectively. Consider `CCc1ccccc1NC(=O)c1c(C)nsc1Nc1nccc(-c2ccccc2)n1` [Example 5, N-(2-Ethylphenyl)-3-methyl-5-[(4-phenylpyrimidin-2-yl)amino]-1,2-thiazole-4-carboxamide], for which the IC50 (at human kinase Mps-1; in experiment [1]) was more than 20000 nM throughout. Regarding `Cc1nsc(Nc2nc3c(C(F)(F)F)ccnc3s2)c1C(=O)Nc1ccc(F)c(F)c1` [Example 58, N-(3,4-Difluorophenyl)-3-methyl-5-{[7-(trifluoromethyl)[1,3]thiazolo[5,4-b]pyridin-2-yl]amino}-1,2-thiazole-4-carboxamide], the values for the IC50 (at human kinase Mps-1; in experiment [1]) were 19000 nM and 290 nM, respectively. With `COC(=O)c1cnc(Nc2snc(C)c2C(=O)Nc2ccc(F)c(F)c2)cn1` [Example 59, Methyl 5-({4-[(3,4-difluorophenyl)carbamoyl]-3-methyl-1,2-thiazol-5-yl}amino)-pyrazine-2-carboxylate], the IC50 is more than 20000 nM at human kinase Mps-1 and 260 nM in experiment [1]. Take `Cc1nsc(Nc2cnc3cc(C(F)(F)F)ccc3n2)c1C(=O)Nc1ccc(F)c(F)c1` [Example 60, N-(3,4-Difluorophenyl)-3-methyl-5-{[6-(trifluoromethyl)quinoxalin-2-yl]amino}-1,2-thiazole-4-carboxamide]: the results for the IC50 (on human kinase Mps-1; in experiment [1]) were more than 20000 nM and 42 nM, respectively. As for `Cc1nsc(Nc2cnc3cc(C(F)(F)F)ccc3n2)c1C(=O)Nc1ccc(Cl)c(Cl)c1` [Example 61, N-(3,4-Dichlorophenyl)-3-methyl-5-{[6-(trifluoromethyl)quinoxalin-2-yl]amino}-1,2-thiazole-4-carboxamide], the IC50 on human kinase Mps-1 is more than 20000 nM; in experiment [1] it was 340 nM. On the same counts, the results for `Cc1nsc(Nc2ccc(C#N)cn2)c1C(=O)Nc1ccc(Cl)c(Cl)c1` [Example 62, 5-[(5-Cyanopyridin-2-yl)amino]-N-(3,4-dichlorophenyl)-3-methyl-1,2-thiazole-4-carboxamide] are more than 20000 nM and 33 nM.

Regarding `Cc1nsc(Nc2cncc(-c3ncco3)n2)c1C(=O)Nc1ccc(Cl)c(F)c1` [Example 63, N-(4-Chloro-3-fluorophenyl)-3-methyl-5-{[6-(1,3-oxazol-2-yl)pyrazin-2-yl]amino}-1,2-thiazole-4-carboxamide], the IC50 on human kinase Mps-1 was more than 20000 nM; in experiment [1], 360 nM. `Cc1nsc(Nc2cncc(-n3cccn3)n2)c1C(=O)Nc1ccc(F)c(F)c1` [Example 64, N-(3,4-Difluorophenyl)-3-methyl-5-{[6-(1H-pyrazol-1-yl)pyrazin-2-yl]amino}-1,2-thiazole-4-carboxamide]: in experiment [1], the IC50 is 110 nM. Turning to `Cc1nsc(Nc2cnccn2)c1C(=O)Nc1ccc(F)c(F)c1` [Example 65, N-(3,4-Difluorophenyl)-3-methyl-5-(pyrazin-2-ylamino)-1,2-thiazole-4-carboxamide], the IC50 was more than 20000 nM on human kinase Mps-1 and 690 nM in experiment [1]. On the same counts, the results for `COC(=O)c1cncc(Nc2snc(C)c2C(=O)Nc2ccc(F)c(F)c2)n1` [Example 66, Methyl 6-({4-[(3,4-difluorophenyl)carbamoyl]-3-methyl-1,2-thiazol-5-yl}amino)-pyrazine-2-carboxylate] are more than 20000 nM and 90 nM.

Regarding `Cc1nsc(Nc2cncc(-n3cccn3)n2)c1C(=O)Nc1ccc(Cl)c(F)c1` [Example 67, N-(4-Chloro-3-fluorophenyl)-3-methyl-5-{[6-(1H-pyrazol-1-yl)pyrazin-2-yl]amino}-1,2-thiazole-4-carboxamide], the IC50 at human kinase Mps-1 is more than 20000 nM; in experiment [1], 22 nM. On the same counts, the results for `Cc1nsc(Nc2cnc3cc(C(F)(F)F)ccc3n2)c1C(=O)Nc1ccc(Cl)c(F)c1` [Example 68, N-(4-Chloro-3-fluorophenyl)-3-methyl-5-{[6-(trifluoromethyl)quinoxalin-2-yl]amino}-1,2-thiazole-4-carboxamide] are more than 20000 nM and 30 nM. For `Cc1cncc(Nc2snc(C)c2C(=O)Nc2ccc(F)c(F)c2)n1` [Example 69], the IC50 at human kinase Mps-1 was more than 20000 nM; in experiment [1], 10 nM. `CNC(=O)c1cncc(Nc2snc(C)c2C(=O)Nc2ccc(F)c(F)c2)n1` [Example 70, 6-({4-[(3,4-Difluorophenyl)carbamoyl]-3-methyl-1,2-thiazol-5-yl}amino)-N-methylpyrazine-2-carboxamide]: the IC50 was more than 20000 nM on human kinase Mps-1 and 940 nM in experiment [1]. On the same counts, the results for `Cc1nsc(Nc2cncc(Cl)n2)c1C(=O)Nc1ccc(F)c(F)c1` [Example 71, 5-[(6-Chloropyrazin-2-yl)amino]-N-(3,4-difluorophenyl)-3-methyl-1,2-thiazole-4-carboxamide] are more than 20000 nM and 84 nM. Regarding `COc1cncc(Nc2snc(C)c2C(=O)Nc2ccc(F)c(F)c2)n1` [Example 72, N-(3,4-Difluorophenyl)-5-[(6-methoxypyrazin-2-yl)amino]-3-methyl-1,2-thiazole-4-carboxamide], the IC50 was more than 20000 nM at human kinase Mps-1 and 20000 nM in experiment [1]. In the case of `CCNC(=O)c1cncc(Nc2snc(C)c2C(=O)Nc2ccc(F)c(F)c2)n1` [Example 73, 6-({4-[(3,4-Difluorophenyl)carbamoyl]-3-methyl-1,2-thiazol-5-yl}amino)-N-ethylpyrazine-2-carboxamide], the IC50 at human kinase Mps-1 is more than 20000 nM; in experiment [1] it was 63 nM. On the same counts, the results for `Cc1nsc(Nc2cnc(Cl)cn2)c1C(=O)Nc1ccc(F)c(F)c1` [Example 74, 5-[(5-Chloropyrazin-2-yl)amino]-N-(3,4-difluorophenyl)-3-methyl-1,2-thiazole-4-carboxamide] are more than 20000 nM and 31 nM. On the same counts, the results for `CNC(=O)c1cnc(Nc2snc(C)c2C(=O)Nc2ccc(F)c(F)c2)cn1` [Example 75, 5-({4-[(3,4-Difluorophenyl)carbamoyl]-3-methyl-1,2-thiazol-5-yl}amino)-N-methylpyrazine-2-carboxamide] are more than 20000 nM and 58 nM. On the same counts, the results for `CCc1cncc(Nc2snc(C)c2C(=O)Nc2ccc(F)c(F)c2)n1` [Example 76, N-(3,4-Difluorophenyl)-5-[(6-ethylpyrazin-2-yl)amino]-3-methyl-1,2-thiazole-4-carboxamide] are more than 20000 nM and 13 nM. Turning to `Cc1nsc(Nc2cnc(Br)cn2)c1C(=O)Nc1ccc(F)c(F)c1` [Example 77, 5-[(5-Bromopyrazin-2-yl)amino]-N-(3,4-difluorophenyl)-3-methyl-1,2-thiazole-4-carboxamide], the IC50 at human kinase Mps-1 is more than 20000 nM; in experiment [1] it was 8.3 nM. On the same counts, the results for `CCNc1cncc(Nc2snc(C)c2C(=O)Nc2ccc(F)c(F)c2)n1` [Example 78, N-(3,4-Difluorophenyl)-5-{[6-(ethylamino)pyrazin-2-yl]amino}-3-methyl-1,2-thiazole-4-carboxamide] are 16000 nM and 910 nM. As for `CCc1cnc(Nc2snc(C)c2C(=O)Nc2ccc(F)c(F)c2)cn1` [Example 79, N-(3,4-Difluorophenyl)-5-[(5-ethylpyrazin-2-yl)amino]-3-methyl-1,2-thiazole-4-carboxamide], the IC50 was more than 20000 nM at human kinase Mps-1 and 150 nM in experiment [1]. On the same counts, the results for `CNC(=O)c1ccc(Nc2snc(C)c2C(=O)Nc2ccc(F)c(F)c2)nn1` [Example 80, 6-({4-[(3,4-Difluorophenyl)carbamoyl]-3-methyl-1,2-thiazol-5-yl}amino)-N-methylpyridazine-3-carboxamide] are more than 20000 nM and 4700 nM.

In the case of `Cc1nsc(Nc2cnc(C(F)(F)F)cn2)c1C(=O)Nc1ccc(F)c(F)c1` [Example 81, N-(3,4-Difluorophenyl)-3-methyl-5-{[5-(trifluoromethyl)pyrazin-2-yl]amino}-1,2-thiazole-4-carboxamide], the IC50 at human kinase Mps-1 was more than 20000 nM; in experiment [1], 16 nM.

As for `COc1ccc2nc(Nc3snc(C)c3C(=O)Nc3ccc(OC)nc3)sc2c1` [Example 87, 5-[(6-Methoxy-1,3-benzothiazol-2-yl)amino]-N-(6-methoxypyridin-3-yl)-3-methyl-1,2-thiazole-4-carboxamide], the IC50 in experiment [1] came out at 350 nM. On the same count and under the same terms, the same measure for `COc1ccc(NC(=O)c2c(C)nsc2Nc2nc3ccc(F)cc3s2)cn1` [Example 88, 5-[(6-Fluoro-1,3-benzothiazol-2-yl)amino]-N-(6-methoxypyridin-3-yl)-3-methyl-1,2-thiazole-4-carboxamide]: 1100 nM. With `CCc1ccccc1NC(=O)c1c(C)nsc1Nc1nc(C(=O)OC)co1` [Example 91, Methyl 2-({4-[(2-ethylphenyl)carbamoyl]-3-methyl-1,2-thiazol-5-yl}amino)-1,3-oxazole-4-carboxylate], the IC50 in experiment [1] was 1400 nM.
